According to publication PMC11477717, “Synthesis of Carborane–Thiazole Conjugates as Tyrosinase and 11β-Hydroxysteroid Dehydrogenase Inhibitors: Antiproliferative Activity and Molecular Docking Studies” (Molecules, 2024):
Read-outs that look alike come from different tables or passages of the source.

How the values were obtained:
[1] = system: A172 (human brain glioblastoma); experiment: MTT antiproliferative assay, A172; type: cell-based; conditions: for IC50: MTT, 72 h, A172 cells, read-out: IC50 ± SD A172; for SI HUVEC/A172: selectivity index = IC50 normal cell line / IC50 cancer cell line
Experimental: (§1) All cell lines were obtained from ATCC, and all chemicals were purchased from Sigma-Aldrich, St. Louis, MO, USA. […] All media were supplemented with antibiotic and antimycotic solutions, according to the manufacturers’ instructions. MTT cytotoxicity assessments were performed as described previously. […] The cells counted using an automated cell counter (Countess® II FL, Invitrogen by Thermo Fisher Scientific Inc., Waltham, MA, USA) were plated in 96-well plates (Nunc Edge 2F, Thermo Fisher Scientific Inc.) at a density of 0.1 × 10^4 per well. After an additional 72 h, cells underwent an MTT cytotoxicity assay (see below). The IC50 values were calculated using ED50plus v 1.0 freeware software (Instituto Nacional de Enfermedades Respiratorias, Mexico City, Mexico). Each cell line was tested in three independent replicates.
(§2) After the incubation time was complete, the medium was removed and crystals of formazan were solubilized in pure isopropanol. The absorbance readout was conducted immediately using a plate reader, Multiskan Spectrum, at 570 nm (Thermo Fisher Scientific Inc., Waltham, MA, USA). The background optical density was measured in the wells filled with the culture medium, without any cells.

B16F10 (murine melanoma) = experiment: MTT antiproliferative assay, B16F10; type: cell-based; conditions: for IC50: MTT, 72 h, B16F10 cells, read-out: IC50 ± SD B16F10; for SI HUVEC/ B16F10: selectivity index = IC50 normal cell line / IC50 cancer cell line
Experimental: as §1, §2

11β-HSD2 = molecular target: T1, 11β-HSD2 (Homo sapiens, UniProt P80365); experiment: Inhibition of 11β-HSD2 assay (cortisol to cortisone, microsomes, cortisol ELISA); type: biochemical; conditions: inhibitor 10 µM, 150 min, 37 °C
T1 construct: Human kidney microsomes, mixed gender, 0.5 mL, 10 mg/mL, Lot No. 1710160, were obtained from XenoTech; tissue XenoTech Lot No. 1710160; host or cells: human kidney microsomes
T1 sequence (P80365 1-405): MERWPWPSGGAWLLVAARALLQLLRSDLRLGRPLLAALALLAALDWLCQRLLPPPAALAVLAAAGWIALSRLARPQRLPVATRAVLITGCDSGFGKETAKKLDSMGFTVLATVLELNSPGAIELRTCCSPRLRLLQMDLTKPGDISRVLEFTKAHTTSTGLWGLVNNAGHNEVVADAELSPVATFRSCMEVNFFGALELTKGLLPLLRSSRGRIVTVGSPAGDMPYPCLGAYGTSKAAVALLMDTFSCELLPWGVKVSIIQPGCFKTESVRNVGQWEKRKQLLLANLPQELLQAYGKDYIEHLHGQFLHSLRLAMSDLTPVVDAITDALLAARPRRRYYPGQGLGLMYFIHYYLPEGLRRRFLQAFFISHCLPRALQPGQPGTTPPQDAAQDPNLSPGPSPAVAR
Experimental: The Enzyme-Linked Immunosorbent Assay (ELISA) Kit for 11-Beta-Hydroxysteroid Dehydrogenase Type 1, Lot No. L160706125, was obtained from Cloud-Clone Corp. PBS, Lot No. H161008, was obtained from Pan Biotech. […] The Enzyme-Linked Immunosorbent Assay (ELISA) Kit for 11-Beta-Hydroxysteroid Dehydrogenase Type 2, Lot No. L191113457, was obtained from Cloud-Clone Corp.
The oxidation reaction of cortisol to cortisone was carried out on 96-well microtiter plates in the presence of the enzyme 11β-HSD2 in a total volume of 100 µL. To this end, 60 µL of phosphate buffer (pH 7.4), 10 µL of a microsomes(0.12 µg/mL […]) solution in PBS (final quantity 2.5 µg), 20 µL of substrate mixture cortisol/NAD (final concentration 200 nM/2 mM), and 10 µL of the appropriate inhibitor solution (solvent DMSO/water 1/99, final concentration 10 µM) were placed in each well. The microplates were incubated on an orbital shaker for 150 min at 37 °C. […] The quantity of unreacted cortisol was determined using a cortisol ELISA kit DiaMetra.

mushroom tyrosinase [2] = molecular target: T2, mushroom tyrosinase (Agaricus bisporus, UniProt C7FF04); experiment: Kinetic analysis of the inhibition of tyrosinase (Lineweaver-Burk); type: biochemical; conditions: compound at 0.05 mM; for Mechanism of Inhibition: Lineweaver-Burk plots; for Vmax: L-DOPA 100-250 µM
T2 construct: purchased Sigma-Aldrich
Experimental: A series of experiments were performed to determine the inhibition kinetics of compounds by following the already reported method. The inhibitor concentrations for compounds were 50 and 100 µM. The substrate L-DOPA concentration was between 100 and 250 µM in all kinetic studies. Maximal initial velocity was determined from the initial linear portion of absorbance up to ten minutes after the addition of the enzyme. The inhibition type of the enzyme, Michaelis constant (KM), and maximal velocity (Vmax) were determined by Lineweaver–Burk plots of the inverse of velocities (1/V) versus the inverse of substrate concentration 1/[L-DOPA] mM^−1.

mushroom tyrosinase [3] = molecular target: T2, mushroom tyrosinase; experiment: Mushroom tyrosinase inhibition assay (L-DOPA, dopachrome 475 nm); type: biochemical
Experimental: The mushroom tyrosinase (Sigma-Aldrich) inhibition was performed following previously reported methods. […] The inhibitor solutions were prepared in DMSO with an initial concentration of 1 mM. Different aliquots were added to the solution containing the buffer, L-DOPA, and EDTA, with the enzyme being added last. […] Ascorbic acid was used as a reference inhibitor with an initial concentration of 1 mM. The IC50 values were calculated from the equation generated via exponential fit of the experimental data.

11β-HSD1 = molecular target: T3, 11β-HSD1 (Homo sapiens, UniProt P28845); experiment: Inhibition of 11β-HSD1 assay (cortisone to cortisol, microsomes, cortisol ELISA); type: biochemical; conditions: for % of 11β-HSD1 Inhibition 10 μM: inhibitor 10 µM, 150 min, 37 °C
T3 construct: tissue XenoTech Lot No. 1410013; host or cells: pooled human liver microsomes
Experimental: L160706125, was obtained from Cloud-Clone Corp. PBS, Lot No. H161008, was obtained from Pan Biotech. […] L191113457, was obtained from Cloud-Clone Corp. […] The microplates were incubated on an orbital shaker for 150 min at 37 °C. […] The quantity of cortisol formed from cortisone was determined using a cortisol ELISA kit, […].

[4] = system: HUVEC (human umbilical vein endothelial cells); experiment: MTT antiproliferative assay, HUVEC healthy control; type: cell-based; conditions: 72 h, HUVEC normal cells, read-out: IC50 ± SD HUVEC
Experimental: All cell lines were obtained from ATCC, and all chemicals were purchased from Sigma-Aldrich, St. Louis, MO, USA. Briefly, cells were cultivated in a controlled atmosphere using DMEM medium with fetal bovine serum (FBS) at a final concentration of 10% (A-172), an L15 medium with 15% FBS, cultivated without CO2 (MDA-MB-231), F12K with a heparin final concentration of 0.1 mg/mL, endothelial cell growth supplement with a final concentration of 0.03 mg/mL (HUVEC), and RPMI with 5% FBS. All media were supplemented with antibiotic and antimycotic solutions, according to the manufacturers’ instructions. MTT cytotoxicity assessments were performed as described previously. Briefly, cell lines A172, B16F10, MDA-MB-231, and HUVEC were seeded 24 h prior to the addition of the tested compounds. The cells counted using an automated cell counter (Countess® II FL, Invitrogen by Thermo Fisher Scientific Inc., Waltham, MA, USA) were plated in 96-well plates (Nunc Edge 2F, Thermo Fisher Scientific Inc.) at a density of 0.1 × 10^4 per well. After an additional 72 h, cells underwent an MTT cytotoxicity assay (see below). The IC50 values were calculated using ED50plus v 1.0 freeware software (Instituto Nacional de Enfermedades Respiratorias, Mexico City, Mexico). Each cell line was tested in three independent replicates.
Twenty microliters of an MTT solution (MTT: 3-(4,5-dimethylthiazol-2-yl)-2,5-diphenyl tetrazolium bromide, stock solution: 5 mg/mL) was added to each cell line for 2 h (A172, B16F10, MDA-MB-231, and HUVEC). After the incubation time was complete, the medium was removed and crystals of formazan were solubilized in pure isopropanol. The absorbance readout was conducted immediately using a plate reader, Multiskan Spectrum, at 570 nm (Thermo Fisher Scientific Inc., Waltham, MA, USA). The background optical density was measured in the wells filled with the culture medium, without any cells.

[5] = system: MDA-MB-231 (human breast adenocarcinoma); experiment: MTT antiproliferative assay, MDA-MB-231; type: cell-based; conditions: for IC50: MTT, 72 h, MDA-MB-231 cells, read-out: IC50 ± SD MDA-MB-231; for SI HUVEC/ MDA-MB-231: selectivity index = IC50 normal cell line / IC50 cancer cell line
Experimental: as §1, §2

[6] = L-DOPA 0.17 mM, pH 6.8, room temperature, read-out: IC50 ± SD mushroom tyrosinase
[7] = 5 inhibitor concentrations, three independent determinations, read-out: IC50 ± SD 11β-HSD1

T2 sequence (C7FF04 1-392 limits assumed): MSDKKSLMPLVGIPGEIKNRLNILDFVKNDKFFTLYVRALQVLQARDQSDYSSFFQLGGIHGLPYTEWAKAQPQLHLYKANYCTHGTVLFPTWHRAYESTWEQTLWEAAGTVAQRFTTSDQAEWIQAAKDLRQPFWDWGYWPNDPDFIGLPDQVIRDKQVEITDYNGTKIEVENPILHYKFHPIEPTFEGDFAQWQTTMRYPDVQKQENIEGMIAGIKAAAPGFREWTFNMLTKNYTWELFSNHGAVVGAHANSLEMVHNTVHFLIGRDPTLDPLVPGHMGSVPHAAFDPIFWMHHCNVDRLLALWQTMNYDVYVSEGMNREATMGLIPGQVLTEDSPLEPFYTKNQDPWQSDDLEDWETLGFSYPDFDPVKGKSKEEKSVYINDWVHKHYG
T3 sequence (P28845 whole entry): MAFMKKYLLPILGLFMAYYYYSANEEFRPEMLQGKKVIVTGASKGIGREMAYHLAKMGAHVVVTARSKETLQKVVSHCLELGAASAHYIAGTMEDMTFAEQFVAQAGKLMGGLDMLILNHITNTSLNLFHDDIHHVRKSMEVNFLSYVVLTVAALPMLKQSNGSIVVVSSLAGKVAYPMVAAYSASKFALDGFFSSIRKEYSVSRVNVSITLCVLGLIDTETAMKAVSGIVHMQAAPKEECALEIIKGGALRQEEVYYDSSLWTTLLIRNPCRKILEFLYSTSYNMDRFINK

| Substance | IC50 [1] | SI HUVEC/A172 [1] | IC50 (B16F10 (murine melanoma)) | SI HUVEC/ B16F10 (B16F10 (murine melanoma)) | % of 11β-HSD2 Inhibition 10 μM (11β-HSD2) | Mechanism of Inhibition (mushroom tyrosinase [2]) | Vmax (mushroom tyrosinase [2]) | IC50 (mushroom tyrosinase [3]; [6]) | IC50 (11β-HSD1; [7]) | % of 11β-HSD1 Inhibition 10 μM (11β-HSD1) | IC50 (11β-HSD1; values in SAR summary, unit inferred, read-out: IC50 11β-HSD1 (unit inferred)) | IC50 [4] | IC50 [5] | SI HUVEC/ MDA-MB-231 [5] | IC50 (mushroom tyrosinase [3]; rounded values in SAR summary, unit mM, read-out: IC50 tyrosinase inhibition) |
| --- | --- | --- | --- | --- | --- | --- | --- | --- | --- | --- | --- | --- | --- | --- | --- |
| 2-(2-(1,2-Dicarba-closo-Dodecaboranylmethylene)Hydrazinyl)-4-(4-Fluorphenyl)Thiazole [4c] | 7.1 ± 1.9 µM | 1.06 | 5.57 ± 0.39 µM | 1.35 | 21.70% | Activator | 0.0810 mM/min | 0.143 ± 0.00938 mM | 8.1 ± 2 µM | 55.74% | 7.9 to 8.1 µM | 7.51 ± 0.64 µM | 6.02 ± 0.08 µM | 1.25 |  |
| 2-(2-(1,2-Dicarba-closo-Dodecaboranylmethylene)Hydrazinyl)-4-(4-Methoxyphenyl)Thiazole [4f] | > 10 µM |  | 5.81 ± 0.82 µM | >1.72 | 29.25% | tyrosinase activator | 0.1472 mM/min | 0.0494 ± 0.00801 mM | 9.35 ± 1.85 µM | 55.54% |  | > 10 µM | 7.32 ± 1.26 µM | >1.37 |  |
| 2-(2-(1,2-Dicarba-closo-Dodecaboranylmethylene)Hydrazinyl)-4-(4-Nitrophenyl)Thiazole [4g] | 6.07 ± 1.06 µM | >1.65 | 5.11 µM | >1.96 | 32.55% | Uncompetitive | 0.0521 mM/min | 0.105 ± 0.00908 mM | 7.05 ± 0.25 µM | 73.51% |  | > 10 µM | 6.96 ± 0.74 µM | >1.44 |  |
| 2-(2-(1,2-Dicarba-closo-Dodecaboranylmethylene)Hydrazinyl)-4-p-Tolylthiazole [4d] | 7.88 ± 0.98 µM | 1.06 | > 10 µM |  | 27.83% | Mixed | 0.3820 mM/min | 0.121 ± 0.0219 mM | 9.05 ± 0.25 µM | 55.78% |  | 8.32 ± 0.09 µM | 6.85 ± 0.86 µM | 1.21 | 0.121 mM |
| 4-(4-Bromophenyl)-2-(2-(1,2-Dicarba-closo-Dodecaboranylmethylene)Hydrazinyl)Thiazole [4b] | 6.15 ± 0.26 µM | 1.21 | 5.37 ± 0.11 µM | 1.39 | 27.36% | Activator | 0.0912 mM/min | 0.145 ± 0.0144 mM | 6.9 ± 1.2 µM | 64.44% |  | 7.46 ± 0.13 µM | 6.56 ± 0.12 µM | 1.14 |  |
| 4-(4-Chlorophenyl)-2-(2-(1,2-Dicarba-closo-Dodecaboranylmethylene)Hydrazinyl)Thiazole [4a] | 5.77 ± 0.96 µM | 1.19 | 5.03 ± 0.69 µM | 1.37 | 25.47% | Mixed | 0.1656 mM/min | 0.13 ± 0.0209 mM | 7.03 ± 0.53 µM | 60.07% |  | 6.87 ± 0.33 µM | 6.54 ± 0.52 µM | 1.05 |  |
